How the values were obtained:
[1] = system: PCSK9 mRNA; experiment: RT-Q-PCR analysis of PCSK9 mRNA in HepG2 cells; type: cell-based; details: Homo sapiens, 24 h, normalized to GAPDH, read-out: HepG2 Q-PCR PCSK9 mRNA level decrease (10 μM)
Description: HepG2 cells (ATCC, Cat.:HB-8065) were maintained in Growth medium—Eagle's Minimum Essential Medium (Corning, 10-010-CVR), 10% FBS (Gibco, 10099-141), Penicillin (100 units/mL), Streptomycin (100 μg/mL). HepG2 cells were incubated at 37° C., 5% CO2.
Cells were cultured in growth medium as described above and treated with the vehicle, Berberine or test compound for 24 h. The RNA was extracted using the Total RNA mini Kit (Tiangen, Beijing, China) according to the manufacturer's instructions. Reverse transcription was carried out using the High-Capacity cDNA reverse transcription kit (Thermo Fisher Scientific). Quantitative real-time PCR was performed using a reaction mixture containing cDNA, specific primers [PCSK9, 5′-[…]-3′ (forward) and 5′-[…]-3′ (reverse); GAPDH, 5′-[…]-3′ (forward) and 5′-[…]-3′ (reverse)] and Maxima SYBR Green/ROX qPCR Master Mix(Thermo Fisher Scientific). PCR amplification was carried out in a Real-Time PCR System. The real-time PCR conditions were 37° C. 10 min; 95° C. 10 min; 95° C. 15 s, 60° C. 30 s, 72° C. 30 s, 40 cycle. The amount of mRNA was normalized to the GAPDH level in the same samples.

[2] = Metabolic stability in human liver microsomes; type: in vitro ADME; details: human liver microsomes 0.5 mg/mL, 37° C., read-out: Metabolic stability T1/2 (minute) Human
Description: (§1) Metabolic Stability of Test Compounds in Incubation with Human, and Rat Liver Microsomes Study Details: • Test concentration: 1 μM; • Reference compound: Ketanserin; • Test systems: human, and rat liver microsomes (from Corning or Xenotech) with final liver microsomal protein concentration of 0.5 mg/mL; • Incubation condition: 0, 5, 15, 30, and 45 min at 37° C.; • Sample size: Duplicates (n=2); • Bioanalytical method: LC-MS/MS;
(§2) [formula] [formula] [formula] • where QH is the hepatic blood flow (mL/min/kg), fub is the fraction of unbound drug in plasma which is assumed to be 1, Clint is the in vitro intrinsic clearance.

[3] = system: PCSK9; experiment: PCSK9 ELISA of HepG2 culture medium; type: cell-based; details: 24 hr
Description: (§3) HepG2 cells (ATCC, Cat.:HB-8065) were maintained in Growth medium—Eagle's Minimum Essential Medium (Corning, 10-010-CVR), 10% FBS (Gibco, 10099-141), Penicillin (100 units/mL), Streptomycin (100 μg/mL). HepG2 cells were incubated at 37° C., 5% CO2. HepG2 cells were plated in flat bottom 96-well plates (Corning, 3599) at 40,000 cells/well in 100 μL of growth media. After an overnight incubation, the culture media were changed to serum-free OptiMEM media(Gibco, 31985-062), 90 μL/well. Vehicle, PF-06446846 hydrochloride, berberine, or test compound was added to the culture media, 10 μL/well. After 24 hr medium was harvested, and 10 μL of the medium were used for the PCSK9 ELISA(R&D Systems, SPC900).

[4] = Metabolic stability in rat liver microsomes; type: in vitro ADME; details: rat liver microsomes 0.5 mg/mL, 37° C., read-out: Metabolic stability T1/2 (minute) Rat
Description: as §1, §2

[5] = system: HepG2 cells; experiment: HepG2 cell viability assay (CellTiter-Glo, cellular ATP); type: cell-based; details: 24 hr, serum-free OptiMEM
Description: as §3, with “black clear” for “flat”, “3063)” for “3599)”, “media (Gibco,” for “media(Gibco,”, “cellular ATP levels” for “medium was harvested, and 10 μL of the medium”, “measured using CellTiter-Glo® 2.0 Assay (Promega, G9242).” for “used for the PCSK9 ELISA(R&D Systems, SPC900).”

| half-life at 1 μM [2] [min] | half-life at 1 μM [4] [min] | Compound | inhibition at 10 µM [1] [%] | HepG2 PCSK9 ELISA (10 μM) % inhibition [3] [%] | HepG2 Survival assay (10 μM) [5] [%] |
| --- | --- | --- | --- | --- | --- |
| 57.2 | 341 | CC(C)NC(=O)CN(CC(=O)Nc1ccc(Oc2ccc(C(F)(F)F)cc2)cc1)C(=O)c1cc2cccc(F)c2[nH]1 [Compound 201-275] | 75 | 80 | 92 |
| 77.8 | 49.6 | CC(C)NC(=O)CN(CC(=O)Nc1ccc(Oc2ccc(F)c(F)c2)cc1)C(=O)c1ccc(C(F)(F)F)[nH]1 [Compound 201-283] | 77 | 100 | 97 |
| – | – | CC(C)NC(=O)CN(CC(=O)Nc1ccc(Oc2ccc(C(C)C)cc2)cc1)C(=O)c1ccc(C(F)(F)F)[nH]1 [Compound 201-319] | 60 | 96 | 76.1 |
| 52.8 | 29.6 | CC(C)c1ccc(Oc2ccc(NC(=O)CN(CC(=O)NC3CC3)C(=O)c3cc4cccc(F)c4[nH]3)cc2)cc1 [Compound 201-312] | 50 | 89 | 102.7 |
| 22.4 | 38.7 | CC(C)NC(=O)CN(CC(=O)Nc1ccc(Oc2cc(F)c(F)c(F)c2)cc1)C(=O)c1cc2cccc(C#N)c2[nH]1 [Compound 201-332] | 85 | 89 | 99 |
| – | – | COc1ccc(Oc2ccc(NC(=O)CN(CC(=O)NC3CC3)C(=O)c3ccc(C(F)(F)F)[nH]3)cc2)cc1 [Compound 201-322] | – | – | 89.6 |
| 98.7 | 417 | O=C(CN(CC(=O)NC1CC1)C(=O)c1ccc(C(F)(F)F)[nH]1)Nc1ccc(Oc2ccc(C(F)(F)F)cc2)cc1 [Compound 201-293] | 50 | 100 | 99 |
| – | – | COc1ccc(Oc2ccc(NC(=O)CN(CC(=O)NC3CC3)C(=O)c3ccc(C(F)(F)F)o3)cc2)cc1 [Compound 201-318] | – | – | 101.6 |
| – | – | COc1ccc(Oc2ccc(NC(=O)CN(CC(=O)NC3CC3)C(=O)c3cc4cccc(C#N)c4[nH]3)cc2)cc1 [Compound 201-326] | – | 83 | 112.5 |
| – | – | CC(C)NC(=O)CN(CC(=O)Nc1ccc(Oc2ccc(C(C)C)cc2)cc1)C(=O)c1cc2cccc(F)c2[nH]1 [Compound 201-311] | – | 85 | 105.9 |
| 40.2 | 45.4 | CC(C)NC(=O)CN(CC(=O)Nc1ccc(Oc2ccc(F)c(F)c2)cc1)C(=O)c1cc2cccc(F)c2[nH]1 [Compound 201-277] | 86 | 100 | 90 |
| – | – | COc1ccc2cc3[n+](cc2c1OC)CCc1cc2c(cc1-3)OCO2 [Berberine, reference compound] | 35 | 52 | – |
| 93 | 20.8 | CC(C)c1ccc(Oc2ccc(NC(=O)CN(CC(=O)NC3CC3)C(=O)c3ccc(C(F)(F)F)[nH]3)cc2)cc1 [Compound 201-320] | 80 | 93 | 87.3 |
| – | – | CC(C)NC(=O)CN(CC(=O)Nc1ccc(Oc2ccc(C(C)C)cc2)cc1)C(=O)c1ccc(C(F)(F)F)o1 [Compound 201-315] | – | 89 | 102 |
| – | – | CC(C)c1ccc(Oc2ccc(NC(=O)CN(CC(=O)NC3CC3)C(=O)c3ccc(C(F)(F)F)o3)cc2)cc1 [Compound 201-316] | – | 89 | 108.4 |
| – | – | CC(C)c1ccc(Oc2ccc(NC(=O)CN(CC(=O)NC3CC3)C(=O)c3cc4cccc(C#N)c4[nH]3)cc2)cc1 [Compound 201-324] | – | 72 | 101.5 |
| – | – | CC(C)NC(=O)CN(CC(=O)Nc1ccc(Oc2ccc(C(C)C)cc2)cc1)C(=O)c1cc2cccc(C#N)c2[nH]1 [Compound 201-323] | – | 79 | 105.6 |
| 14.3 | 17.5 | CC(C)NC(=O)CN(CC(=O)Nc1ccc(Oc2ccc(C(F)F)cc2)cc1)C(=O)c1cc2cccc(C#N)c2[nH]1 [Compound 201-329] | 73 | 91 | 106 |
| 46.7 | 42.4 | CCc1ccc(Oc2ccc(NC(=O)CN(CC(=O)NC(C)C)C(=O)c3cc4cccc(F)c4[nH]3)cc2)cc1 [Compound 201-276] | 54 | 94 | 99 |
| – | – | COc1ccc(Oc2ccc(NC(=O)CN(CC(=O)NC3CC3)C(=O)c3cc4cccc(F)c4[nH]3)cc2)cc1 [Compound 201-314] | – | 97 | 103.7 |
| – | – | COc1ccc(Oc2ccc(NC(=O)CN(CC(=O)NC(C)C)C(=O)c3cc4cccc(F)c4[nH]3)cc2)cc1 [Compound 201-313] | – | 98 | 89.4 |
| 159 | 428 | CC(C)NC(=O)CN(CC(=O)Nc1ccc(Oc2ccc(C(F)(F)F)cc2)cc1)C(=O)c1ccc(C(F)(F)F)[nH]1 [Compound 201-281] | 70 | 100 | 98 |
| 100 | 138 | O=C(CN(CC(=O)NC1CC1)C(=O)c1cc2cccc(F)c2[nH]1)Nc1ccc(Oc2ccc(C(F)(F)F)cc2)cc1 [Compound 201-287] | 56 | 99 | 96 |
| 20.6 | 41 | CC(C)NC(=O)CN(CC(=O)Nc1ccc(Oc2cc(F)c(F)c(F)c2)cc1)C(=O)c1cc2cccc(F)c2[nH]1 [Compound 201-331] | 92 | 87 | 103 |
| 14.4 | 35.4 | CC(C)NC(=O)CN(CC(=O)Nc1ccc(Oc2ccc(C(F)F)cc2)cc1)C(=O)c1cc2cccc(F)c2[nH]1 [Compound 201-327] | 88 | 90 | 98 |
| 64 | 66 | CC(C)NC(=O)CN(CC(=O)Nc1ccc(Oc2ccc(C(F)(F)F)cc2)cc1)C(=O)c1cc2cccc(C#N)c2[nH]1 [Compound 201-284] | 90 | 94 | 101 |
| – | – | COc1ccc(Oc2ccc(NC(=O)CN(CC(=O)NC(C)C)C(=O)c3ccc(C(F)(F)F)o3)cc2)cc1 [Compound 201-317] | – | – | 100.8 |
